The values below come from US7473669B2, “Substituted 4,5-dihydro-1,2,4-triazin-6-ones, 1,2,4-triazin-6-ones, and their use as fungicides” (priority 2005, dated 2009).

Assay type in all cases: in vivo
In one experiment the test system is Leptosphaeria nodorum. The experiment in a line: Glume Blotch of Wheat greenhouse one-day protectant test. As to conditions: Parastagonospora nodorum, 24 h; wheat plants, one-day protectant test, 200 ppm application rate; read-out: LEPTNO percent control rating.
For experiment [1], the system named is Puccinia recondita tritici. In words: Leaf Rust of Wheat greenhouse one-day protectant test. As to conditions: 24 h, wheat plants, one-day protectant test, 200 ppm application rate, read-out: PUCCRT percent control rating.
For another experiment, the system named is Pyricularia oryzae. In words: whole plant or invertebrate. As to conditions: 24 h, read-out: PYRIOR percent control rating.
The next experiment deals with Phytophthora infestans. In words: whole plant or invertebrate. As to conditions: in Solanum lycopersicum, 24 h, read-out: PHYTIN percent control rating, tomato plants, one-day protectant test, 200 ppm application rate.
The test system of the next experiment is Erysiphe cichoracaerum. In words: Cucumber Powdery Mildew greenhouse one-day protectant test. As to conditions: 24 h, cucumber plants, one-day protectant test, 200 ppm application rate, read-out: ERYSCI percent control rating.
A further experiment has as its system Colletotricum lagenarium. The experiment in a line: Cucumber Anthracnose greenhouse one-day protectant test. As to conditions: Cucumis sativus, 24 h, cucumber plants, one-day protectant test, 200 ppm application rate; read-out: COLLLA percent control rating.

For `Cc1cc(C)cc(C2=NN(CC(F)(F)F)C(=O)C(SC3CCCCC3)N2)c1` (stereo not drawn) [Compound 37], the pest or weed control at 200 ppm in the experiment with Leptosphaeria nodorum is 80 to 100%; in experiment [1] it was 80 to 100%; in the experiment on Pyricularia oryzae, 80 to 100%; in the experiment with Phytophthora infestans it was 0 to 49%; in the experiment with Erysiphe cichoracaerum, 0 to 49%; with Colletotricum lagenarium, 80 to 100%.
`Cc1cc(C)cc(C2=NN(CC(F)(F)F)C(=O)C(SCCO)N2)c1` (stereo not drawn) [Compound 38]: the pest or weed control at 200 ppm in the experiment with Leptosphaeria nodorum is 80 to 100%; in experiment [1] it was 80 to 100%; in the experiment on Pyricularia oryzae, 80 to 100%; with Phytophthora infestans, 0 to 49%; with Erysiphe cichoracaerum it was 0 to 49%; in the experiment with Colletotricum lagenarium, 0 to 49%.
Regarding `Cc1cc(C)cc(C2=NN(CC(F)(F)F)C(=O)C(SCCCCl)N2)c1` (stereo not drawn) [Compound 39], the pest or weed control at 200 ppm in the experiment on Leptosphaeria nodorum fell in the range of 80 to 100%; in experiment [1], 80 to 100%; in the experiment on Pyricularia oryzae, 80 to 100%; with Phytophthora infestans, 0 to 49%; in the experiment with Erysiphe cichoracaerum, 0 to 49%; in the experiment on Colletotricum lagenarium, 80 to 100%.
For `Cc1cc(C)cc(C2=NN(CC(F)(F)F)C(=O)C(OCc3ccccc3)N2)c1` (stereo not drawn) [Compound 40], the pest or weed control at 200 ppm in the experiment on Leptosphaeria nodorum was 80 to 100%; in experiment [1], 80 to 100%; in the experiment with Pyricularia oryzae it was 80 to 100%; with Phytophthora infestans it was 0 to 49%; with Erysiphe cichoracaerum, 0 to 49%; with Colletotricum lagenarium, 80 to 100%.
For `Cc1cc(C)cc(C2=NN(CC(F)(F)F)C(=O)C(OC3CCCCC3)N2)c1` (stereo not drawn) [Compound 41], the pest or weed control at 200 ppm in the experiment with Leptosphaeria nodorum is 80 to 100%; in experiment [1] it was 80 to 100%; in the experiment on Pyricularia oryzae, 80 to 100%; in the experiment on Phytophthora infestans it was 0 to 49%; with Erysiphe cichoracaerum, 0 to 49%; in the experiment with Colletotricum lagenarium, 50 to 79%.
Consider `Cc1cc(C)cc(C2=NN(CC(F)(F)F)C(=O)C(SCC(=O)O)N2)c1` (stereo not drawn) [Compound 42], for which the pest or weed control at 200 ppm in the experiment with Leptosphaeria nodorum was 80 to 100%; in experiment [1], 80 to 100%; in the experiment on Pyricularia oryzae, 80 to 100%; in the experiment on Phytophthora infestans, 0 to 49%; in the experiment on Erysiphe cichoracaerum it was 0 to 49%; with Colletotricum lagenarium, 80 to 100%.
For `Cc1cc(C2=NN(CC(F)(F)F)C(=O)C(SC3CCCCC3)N2)ccc1Br` (stereo not drawn) [Compound 43], the pest or weed control at 200 ppm in the experiment on Leptosphaeria nodorum was in the range of 80 to 100%; in experiment [1] it was 80 to 100%; in the experiment with Pyricularia oryzae, 80 to 100%; in the experiment with Phytophthora infestans it was 80 to 100%; in the experiment with Erysiphe cichoracaerum it was 0 to 49%; in the experiment on Colletotricum lagenarium it was 80 to 100%.
In the case of `O=C1C(SC2CCCCC2)NC(c2cc(Br)cc(Br)c2)=NN1CC(F)(F)F` (stereo not drawn) [Compound 44], the pest or weed control at 200 ppm in the experiment with Leptosphaeria nodorum is 80 to 100%; in experiment [1], 80 to 100%; in the experiment on Pyricularia oryzae, 80 to 100%; in the experiment with Phytophthora infestans, 80 to 100%; with Erysiphe cichoracaerum, 0 to 49%; in the experiment with Colletotricum lagenarium it was 80 to 100%.
In the case of `O=C1C(SC2CCCCC2)NC(c2ccc(Oc3ccccc3)c(-c3ccccc3)c2)=NN1CC(F)(F)F` (stereo not drawn) [Compound 45], the pest or weed control at 200 ppm in the experiment on Leptosphaeria nodorum was 80 to 100%; in experiment [1], 50 to 79%; in the experiment on Pyricularia oryzae it was 80 to 100%; with Phytophthora infestans, 0 to 49%; with Erysiphe cichoracaerum, 0 to 49%; with Colletotricum lagenarium it was 50 to 79%.
Consider `O=C1C(SC2CCCCC2)NC(c2cccc(/C=C\c3ccccc3)c2)=NN1CC(F)(F)F` (stereo not drawn) [Compound 47], for which the pest or weed control at 200 ppm is 80 to 100% in the experiment with Leptosphaeria nodorum; 80 to 100% in experiment [1]; 80 to 100% in the experiment with Pyricularia oryzae; 0 to 49% in the experiment with Phytophthora infestans; 80 to 100% in the experiment on Erysiphe cichoracaerum; 80 to 100% in the experiment with Colletotricum lagenarium.
As to `O=C1C(SC2CCCCC2)NC(c2ccc(Br)s2)=NN1CC(F)(F)F` (stereo not drawn) [Compound 50], the pest or weed control at 200 ppm in the experiment on Leptosphaeria nodorum was 80 to 100%; in experiment [1], 80 to 100%; with Pyricularia oryzae it was 80 to 100%; in the experiment with Phytophthora infestans, 0 to 49%; in the experiment on Erysiphe cichoracaerum, 0 to 49%; in the experiment on Colletotricum lagenarium, 50 to 79%.
For `Cc1ccccc1-c1cccc(C2=NN(CC(F)(F)F)C(=O)C(SC3CCCCC3)N2)c1` (stereo not drawn) [Compound 51], the pest or weed control at 200 ppm in the experiment with Leptosphaeria nodorum was in the range of 80 to 100%; in experiment [1], 80 to 100%; in the experiment with Pyricularia oryzae, 80 to 100%; with Phytophthora infestans, 0 to 49%; in the experiment on Erysiphe cichoracaerum, 0 to 49%; with Colletotricum lagenarium it was 50 to 79%.
Take `O=C1C(SC2CCCCC2)NC(c2cccc(-c3ccccc3OC(F)(F)F)c2)=NN1CC(F)(F)F` (stereo not drawn) [Compound 52]: the pest or weed control at 200 ppm with Leptosphaeria nodorum lay within 80 to 100%; in experiment [1] it was 80 to 100%; with Pyricularia oryzae, 80 to 100%; with Phytophthora infestans, 0 to 49%; with Erysiphe cichoracaerum, 0 to 49%; in the experiment on Colletotricum lagenarium it was 0 to 49%.
Take `COc1ccccc1-c1cccc(C2=NN(CC(F)(F)F)C(=O)C(SC3CCCCC3)N2)c1` (stereo not drawn) [Compound 53]: the pest or weed control at 200 ppm in the experiment with Leptosphaeria nodorum was in the range of 80 to 100%; in experiment [1], 80 to 100%; in the experiment on Pyricularia oryzae, 80 to 100%; with Phytophthora infestans, 0 to 49%; in the experiment with Erysiphe cichoracaerum it was 0 to 49%; in the experiment with Colletotricum lagenarium, 50 to 79%.
As for `O=C(c1ccccc1)c1cccc(C2=NN(CC(F)(F)F)C(=O)C(SC3CCCCC3)N2)c1` (stereo not drawn) [Compound 54], the pest or weed control at 200 ppm in the experiment with Leptosphaeria nodorum was 80 to 100%; in experiment [1] it was 50 to 79%; in the experiment with Pyricularia oryzae, 80 to 100%; with Phytophthora infestans, 0 to 49%; in the experiment with Erysiphe cichoracaerum, 0 to 49%; with Colletotricum lagenarium it was 50 to 79%.
For `O=C1C(SC2CCCCC2)NC(c2cccc(-c3ccsc3)c2)=NN1CC(F)(F)F` (stereo not drawn) [Compound 55], the pest or weed control at 200 ppm in the experiment with Leptosphaeria nodorum lay within 80 to 100%; in experiment [1], 50 to 79%; in the experiment with Pyricularia oryzae it was 80 to 100%; in the experiment with Phytophthora infestans, 0 to 49%; in the experiment on Erysiphe cichoracaerum, 0 to 49%; in the experiment on Colletotricum lagenarium it was 50 to 79%.
For the compound `CON=C(c1ccccc1)c1cccc(C2=NN(CC(F)(F)F)C(=O)C(SC3CCCCC3)N2)c1` (stereo not drawn) [Compound 56], the pest or weed control at 200 ppm lay in the range of 80 to 100% in the experiment with Leptosphaeria nodorum; 50 to 79% in experiment [1]; 80 to 100% in the experiment on Pyricularia oryzae; 0 to 49% in the experiment with Phytophthora infestans; 0 to 49% with Erysiphe cichoracaerum; 0 to 49% with Colletotricum lagenarium.
For `O=C1C(SC2CCCCC2)NC(c2cccc(C(=NOCc3ccccc3)c3ccccc3)c2)=NN1CC(F)(F)F` (stereo not drawn) [Compound 57], the pest or weed control at 200 ppm (in the experiment with Leptosphaeria nodorum; in experiment [1]; with Pyricularia oryzae; in the experiment on Phytophthora infestans; with Erysiphe cichoracaerum; in the experiment on Colletotricum lagenarium) was 0 to 49% in each case.
In the case of `O=C1CNC(c2ccc(N3CCOCC3)cc2)=NN1CC(F)(F)F` [Compound 58], the pest or weed control at 200 ppm with Leptosphaeria nodorum fell in the range of 0 to 49%; in experiment [1], 0 to 49%; with Pyricularia oryzae, 80 to 100%; with Phytophthora infestans, 0 to 49%; with Erysiphe cichoracaerum, 50 to 79%; with Colletotricum lagenarium, 0 to 49%.
Regarding `O=C1CNC(c2ccc(Oc3cccnc3)cc2)=NN1CC(F)(F)F` [Compound 59], the pest or weed control at 200 ppm with Leptosphaeria nodorum is 50 to 79%; in experiment [1], 80 to 100%; with Pyricularia oryzae, 50 to 79%; in the experiment on Phytophthora infestans, 50 to 79%; with Erysiphe cichoracaerum, 0 to 49%; in the experiment on Colletotricum lagenarium, 0 to 49%.
In the case of `O=C1CNC(c2csc(-c3ccccc3)c2)=NN1CC(F)(F)F` [Compound 60], the pest or weed control at 200 ppm in the experiment with Leptosphaeria nodorum is 80 to 100%; in experiment [1], 0 to 49%; in the experiment with Pyricularia oryzae it was 80 to 100%; with Phytophthora infestans, 0 to 49%; in the experiment with Erysiphe cichoracaerum it was 0 to 49%; with Colletotricum lagenarium, 0 to 49%.
With `CCCCN1N=C(c2cc(-c3ccsc3)cc(-c3ccsc3)c2)NCC1=O` [Compound 62], the pest or weed control at 200 ppm was in the range of 80 to 100% in the experiment on Leptosphaeria nodorum; 0 to 49% in experiment [1]; 0 to 49% in the experiment on Pyricularia oryzae; 0 to 49% with Phytophthora infestans; 0 to 49% in the experiment on Erysiphe cichoracaerum; 0 to 49% in the experiment on Colletotricum lagenarium.
On to `Cc1cc(C)cc(C2=NN(Cc3c(F)c(F)c(F)c(F)c3F)C(=O)CN2)c1` [Compound 63], for which the pest or weed control at 200 ppm in the experiment with Leptosphaeria nodorum fell in the range of 50 to 79%; in experiment [1], 0 to 49%; with Pyricularia oryzae, 50 to 79%; in the experiment with Phytophthora infestans it was 0 to 49%; in the experiment on Erysiphe cichoracaerum it was 0 to 49%; in the experiment with Colletotricum lagenarium it was 0 to 49%.
Turning to `Cc1cc(C)cc(C2=NN(CCOc3ccccc3)C(=O)CN2)c1` [Compound 64], the pest or weed control at 200 ppm was in the range of 80 to 100% in the experiment with Leptosphaeria nodorum; 80 to 100% in experiment [1]; 80 to 100% in the experiment with Pyricularia oryzae; 0 to 49% in the experiment on Phytophthora infestans; 0 to 49% with Erysiphe cichoracaerum; 50 to 79% with Colletotricum lagenarium.
